{
  "source": "patent US9273052B2",
  "about": "“Phthalazinone ketone derivative, preparation method thereof, and pharmaceutical use thereof” (Jiangsu Hansoh Pharmaceutical Co., Ltd., priority 2010, dated 2016)",
  "key": {"[1]": {"test_system": "MDA-MB-436 cells", "assay": "Cell proliferation inhibition assay (CCK8)", "type": "cell-based", "settings": "Homo sapiens, 72 hours"}, "[2]": {"assay": "Pharmacokinetics assay in SD rats (LC/MS/MS plasma concentration)", "type": "in vivo", "settings": "15 mg/kg; for AUC / half-life / MRT / Cmax / bioavailability: both sexes, rat, plasma; for AUC: read-out: Area Under Curve AUC; for half-life: read-out: Half-Life t1/2 (converted); for MRT: read-out: Mean Residence Time MRT; for Cmax: read-out: Plasma Conc. Cmax; for bioavailability: po", "protocol": "The pharmacokinetic behavior of the compounds of the present invention was studied and evaluated in rats.\n24 Healthy adult SD rats, male and female in half, were purchased from SINO-BRITSH SIPPR/BK LAB. ANIMAL LTD., CO, Certificate No.: SCXK (Shanghai) 2003-0002.\nThe intragastrical administration group: the right amount of tested compounds were weighed and dissolved in 0.5 mL of DMSO, diluted with physiological saline to 10 mL and prepared to 1.5 mg/mL.\nThe intravenous injection administration group: the right amount of tested compounds were weighed and added into […].\nAfter an overnight fast, 24 healthy adult SD rats, male and female in half, were administered intragastrically at a dose of 15.0 mg/kg and an administration volume of 10 mL/kg.\n(§1) The intragastrical administration group: blood samples (0.2 mL) were taken from orbital sinus at pre administration and at 0.25 hour, 0.5 hour, 1.0 hour, 1.5 hours, 2.0 hours, 3.0 hours, 4.0 hours, 6.0 hours, 7.0 hours, 9.0 hours, 12.0 hours and 24.0 hours post administration, stored in heparinized tubes and centrifuged for 20 minutes at 3,500 rpm to separate plasma. The plasma samples were stored at −20° C. The rats were fed at 2 hours after administration.\nas §1, with “intravenous injection” for “intragastrical”, “2 minutes, 15 minutes,” for “0.25 hour,”, “hour,” for “hour, 1.5 hours,”, “8.0” for “7.0 hours, 9.0”, “C.” for “C. The rats were fed at 2 hours after administration.”\n20 μL of rat blank plasmas taken at various time points after administration were added with 50 μL of internal standard solution and 140 μL of methanol and mixed for 3 minutes by a vortexer. The mixture was centrifuged for 10 minutes at 13,500 rpm. 20 μL of the supernatant was analyzed by LC-MS/MS. The main pharmacokinetic parameters were calculated by software DAS 2.0."}, "[3]": {"test_system": "human colon carcinoma SW620", "assay": "Antitumor effect with temozolomide on SW620 transplanted tumors in nude mice", "type": "in vivo", "settings": "colon carcinoma SW620 in BALB/cA-nude mice; 1 mg/kg oral gavage + TMZ 50 mg/kg oral gavage; day 44", "protocol": "The therapeutic effect of the compounds of the present invention administered in combination with temozolomide (TMZ) on transplanted tumors of human colon carcinoma SW620 or human breast cancer cells MX-1 in nude mice was evaluated by using BALB/cA-nude mice as test animals.\nBALB/cA-nude mice, SPF, 16-20 g, female( ), were purchased from SINO-BRITSH SIPPR/BK LAB. ANIMAL LTD., CO. Certificate No.: SCXK(Shanghai) 2008-0016.\n4.2 The right rib of the nude mice was subcutaneously inoculated with colon carcinoma cells SW620. After tumors grew to 339±132 mm^3, mice were randomly divided into teams (d0).\nThe volume of tumors and the weight of the mice were measured and recorded for 2 to 3 times per week.\nThe volume of tumor (V) was calculated by the follow equation: V=½×a×b^2 wherein: a, b represents length and width respectively. The antitumor rate(%)=(C−T)/C(%) wherein: T, C represents the tumor volume of the experimental group (tested compounds) and blank control group at the end of the experiment respectively. 5. Dosage, Dosage Regimens and the Results"}},
  "note": "Read-outs that look alike come from different tables or passages of the source.",
  "data": [
    {"smiles": "O=C(c1cc(Cc2n[nH]c(=O)c3ccccc23)ccc1F)N1CCn2c(C(F)(F)F)nc(C(=O)N3CCCC3)c2C1", "note": "[Example 18, 4-[[4-fluoro-3-[1-(pyrrolidine-1-carbonyl)-3-(trifluoromethyl)-6,8-dihydro-5H-imidazo[1,5-a]pyrazine-7-carbonyl]phenyl]methyl]-2H-phthalazin-1-one]", "values": [
      {"measurement": "IC50", "setting": "[1]", "result": 610, "unit": "nM"}
    ]},
    {"smiles": "CCNC(=O)c1nc(C(F)(F)F)n2c1CN(C(=O)c1cc(Cc3n[nH]c(=O)c4ccccc34)ccc1F)CC2", "note": "[Example 7, N-ethyl-7-[2-fluoro-5-[(4-oxo-3H-phthalazin-1-yl)methyl]benzoyl]-3-(trifluoromethyl)-6,8-dihydro-5H-imidazo[1,5-a]pyrazine-1-carboxamide]", "values": [
      {"measurement": "IC50", "setting": "[1]", "result": 71, "unit": "nM"},
      {"measurement": "AUC", "setting": "[2]; intravenous injection", "result": "34800 ± 15500", "unit": "ng·h/mL"},
      {"measurement": "half-life", "setting": "[2]; intravenous injection", "result": "0.94 ± 0.26", "unit": "h"},
      {"measurement": "MRT", "setting": "[2]; intravenous injection", "result": "1.25 ± 0.53", "unit": "h"},
      {"measurement": "AUC", "setting": "[2]; oral gavage", "result": "4500 ± 6670", "unit": "ng·h/mL"},
      {"measurement": "half-life", "setting": "[2]; oral gavage", "result": "3.87 ± 4.03", "unit": "h"},
      {"measurement": "MRT", "setting": "[2]; oral gavage", "result": "12.7 ± 15.4", "unit": "h"},
      {"measurement": "Cmax", "setting": "[2]; oral gavage", "result": "971 ± 1400", "unit": "ng/mL"},
      {"measurement": "bioavailability", "setting": "[2]", "result": 12.9, "unit": "%"},
      {"measurement": "Apparent Distribution Volume Vz/F", "setting": "[2]; intravenous injection", "result": "0.64 ± 0.19", "unit": "kg⁻¹"},
      {"measurement": "Clearance CL/F", "setting": "[2]; intravenous injection", "result": "0.52 ± 0.29 1/11/kg"},
      {"measurement": "Apparent Distribution Volume Vz/F", "setting": "[2]; oral gavage", "result": "103 ± 134", "unit": "kg⁻¹"},
      {"measurement": "Clearance CL/F", "setting": "[2]; oral gavage", "result": "15.4 ± 12.4 1/11/kg"}
    ]},
    {"smiles": "CNC(=O)c1nc(C(F)(F)F)n2c1CN(C(=O)c1cccc(Cc3n[nH]c(=O)c4ccccc34)c1)CC2", "note": "[Example 21, N-methyl-7-[3-[(4-oxo-3H-phthalazin-1-yl)methyl]benzoyl]-3-(trifluoromethyl)-6,8-dihydro-5H-imidazo[1,5-a]pyrazine-1-carboxamide]", "values": [
      {"measurement": "IC50", "setting": "[1]", "result": 780, "unit": "nM"}
    ]},
    {"smiles": "O=C(c1cc(Cc2n[nH]c(=O)c3ccccc23)ccc1F)N1CCn2c(nnc2C(F)F)C1", "note": "[Example 23, 4-[[3-[3-(difluoromethyl)-6,8-dihydro-5H-[1,2,4]triazolo[4,3-a]pyrazine-7-carbonyl]-4-fluoro-phenyl]methyl]-2H-phthalazin-1-one]", "values": [
      {"measurement": "IC50", "setting": "[1]", "result": 2, "unit": "nM"}
    ]},
    {"smiles": "O=C(c1cc(Cc2n[nH]c(=O)c3ccccc23)ccc1F)N1CCn2cnnc2C1", "note": "[Example 17, 4-[[3-(6,8-dihydro-5H-[1,2,4]triazolo[4,3-a]pyrazine-7-carbonyl)-4-fluoro-phenyl]methyl]-2H-phthalazin-1-one]", "values": [
      {"measurement": "IC50", "setting": "[1]", "result": 61, "unit": "nM"}
    ]},
    {"smiles": "CN(C)C(=O)c1nc(C(F)(F)F)n2c1CN(C(=O)c1cc(Cc3n[nH]c(=O)c4ccccc34)ccc1F)CC2", "note": "[Example 22, 7-[2-fluoro-5-[(4-oxo-3H-phthalazin-1-yl)methyl]benzoyl]-N,N-dimethyl-3-(trifluoromethyl)-6,8-dihydro-5H-imidazo[1,5-a]pyrazine-1-carboxamide]", "values": [
      {"measurement": "IC50", "setting": "[1]", "result": 650, "unit": "nM"}
    ]},
    {"smiles": "O=C(NCC1CC1)c1nc(C(F)(F)F)n2c1CN(C(=O)c1cc(Cc3n[nH]c(=O)c4ccccc34)ccc1F)CC2", "note": "[Example 24, N-(cyclopropylmethyl)-7-[2-fluoro-5-[(4-oxo-3H-phthalazin-1-yl)methyl]benzoyl]-3-(trifluoromethyl)-6,8-dihydro-5H-imidazo[1,5-a]pyrazine-1-carboxamide]", "values": [
      {"measurement": "IC50", "setting": "[1]", "result": 72, "unit": "nM"}
    ]},
    {"smiles": "NC(=O)c1nc(C(F)(F)F)n2c1CN(C(=O)c1cc(Cc3n[nH]c(=O)c4ccccc34)ccc1F)CC2", "note": "[Example 10, 7-[2-fluoro-5-[(4-oxo-3H-phthalazin-1-yl)methyl]benzoyl]-3-(trifluoromethyl)-6,8-dihydro-5H-imidazo[1,5-a]pyrazine-1-carboxamide]", "values": [
      {"measurement": "IC50", "setting": "[1]", "result": 140, "unit": "nM"}
    ]},
    {"smiles": "CNC(=O)c1nc(C(F)(F)F)n2c1CN(C(=O)c1cc(Cc3n[nH]c(=O)c4ccccc34)ccc1F)CC2", "note": "[Example 13, 7-[2-fluoro-5-[(4-oxo-3H-phthalazin-1-yl)methyl]benzoyl]-N-methyl-3-(trifluoromethyl)-6,8-dihydro-5H-imidazo[1,5-a]pyrazine-1-carboxamide]", "values": [
      {"measurement": "IC50", "setting": "[1]", "result": 120, "unit": "nM"},
      {"measurement": "AUC", "setting": "[2]; intravenous injection", "result": "29400 ± 18500", "unit": "ng·h/mL"},
      {"measurement": "half-life", "setting": "[2]; intravenous injection", "result": "5.05 ± 1.34", "unit": "h"},
      {"measurement": "MRT", "setting": "[2]; intravenous injection", "result": "0.89 ± 0.44", "unit": "h"},
      {"measurement": "AUC", "setting": "[2]; oral gavage", "result": "4300 ± 3250", "unit": "ng·h/mL"},
      {"measurement": "half-life", "setting": "[2]; oral gavage", "result": "6.01 ± 2.27", "unit": "h"},
      {"measurement": "MRT", "setting": "[2]; oral gavage", "result": "1.87 ± 0.53", "unit": "h"},
      {"measurement": "Cmax", "setting": "[2]; oral gavage", "result": "3070 ± 719", "unit": "ng/mL"},
      {"measurement": "bioavailability", "setting": "[2]", "result": 16.8, "unit": "%"},
      {"measurement": "Apparent Distribution Volume Vz/F", "setting": "[2]; intravenous injection", "result": "4.70 ± 2.17", "unit": "kg⁻¹"},
      {"measurement": "Clearance CL/F", "setting": "[2]; intravenous injection", "result": "0.72 ± 0.45 1/11/kg"},
      {"measurement": "Apparent Distribution Volume Vz/F", "setting": "[2]; oral gavage", "result": "49.9 ± 52.9", "unit": "kg⁻¹"},
      {"measurement": "Clearance CL/F", "setting": "[2]; oral gavage", "result": "4.47 ± 3.78 1/11/kg"}
    ]},
    {"smiles": "O=C(c1cccc(Cc2n[nH]c(=O)c3ccccc23)c1)N1CCn2c(nnc2C(F)(F)F)C1", "note": "[Example 15, 4-[[3-[3-(trifluoromethyl)-6,8-dihydro-5H-[1,2,4]triazolo[4,3-a]pyrazine-7-carbonyl]phenyl]methyl]-2H-phthalazin-1-one]", "values": [
      {"measurement": "IC50", "setting": "[1]", "result": 0.9, "unit": "nM"}
    ]},
    {"smiles": "COC(=O)c1nc(C(F)(F)F)n2c1CN(C(=O)c1cc(Cc3n[nH]c(=O)c4ccccc34)ccc1F)CC2", "note": "[Example 3, methyl 7-[2-fluoro-5-[(4-oxo-3H-phthalazin-1-yl)methyl]benzoyl]-3-(trifluoromethyl)-6,8-dihydro-5H-imidazo[1,5-a]pyrazine-1-carboxylate]", "values": [
      {"measurement": "IC50", "setting": "[1]", "result": 190, "unit": "nM"}
    ]},
    {"smiles": "O=C(c1cc(Cc2n[nH]c(=O)c3ccccc23)ccc1F)N1CCn2ncnc2C1", "note": "[Example 16, 4-[[3-(6,8-dihydro-5H-[1,2,4]triazolo[1,5-a]pyrazine-7-carbonyl)-4-fluoro-phenyl]methyl]-2H-phthalazin-1-one]", "values": [
      {"measurement": "IC50", "setting": "[1]", "result": 99, "unit": "nM"}
    ]},
    {"smiles": "O=C(c1cc(Cc2n[nH]c(=O)c3ccccc23)ccc1F)N1CCn2cc(C(F)(F)F)nc2C1", "note": "[Example 12, 4-[[4-fluoro-3-[2-(trifluoromethyl)-6,8-dihydro-5H-imidazo[1,2-a]pyrazine-7-carbonyl]phenyl]methyl]-2H-phthalazin-1-one]", "values": [
      {"measurement": "IC50", "setting": "[1]", "result": 590, "unit": "nM"}
    ]},
    {"smiles": "O=C(c1cc(Cc2n[nH]c(=O)c3ccccc23)ccc1F)N1CCn2c(cnc2C(F)(F)F)C1", "note": "[Example 5, 4-[[4-fluoro-3-[3-(trifluoromethyl)-6,8-dihydro-5H-imidazo[1,5-a]pyrazine-7-carbonyl]phenyl]methyl]-2H-phthalazin-1-one]", "values": [
      {"measurement": "IC50", "setting": "[1]", "result": 320, "unit": "nM"}
    ]},
    {"smiles": "O=C(c1cc(Cc2n[nH]c(=O)c3ccccc23)ccc1F)N1CCn2c(nnc2CC(F)(F)F)C1", "note": "[Example 26, 4-[[4-fluoro-3-[3-(2,2,2-trifluoroethyl)-6,8-dihydro-5H-[1,2,4]triazolo[4,3-a]pyrazine-7-carbonyl]phenyl]methyl]-2H-phthalazin-1-one]", "values": [
      {"measurement": "IC50", "setting": "[1]", "result": 3, "unit": "nM"}
    ]},
    {"smiles": "O=C(c1cc(Cc2n[nH]c(=O)c3ccccc23)ccc1F)N1CCn2c(nnc2C(F)(F)F)C1", "note": "[Example 1, 4-[[4-fluoro-3-[3-(trifluoromethyl)-6,8-dihydro-5H-[1,2,4]triazolo[4,3-a]pyrazine-7-carbonyl]phenyl]methyl]-2H-phthalazin-1-one]", "values": [
      {"measurement": "IC50", "setting": "[1]", "result": 0.8, "unit": "nM"},
      {"measurement": "antitumor rate (%)", "setting": "[3]", "result": "++ (“++”: 60%~80%)"}
    ]}
  ]
}
